Test results taken from the supplement of paper PMC7840683.
± gives the standard deviation of the averaged measurements.

Test system: HepaRG
Assay: LDH release cytotoxicity, % of total lysis control; higher = more cytotoxic
Conditions: 48 h
Procedure, shortened: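 On collagen I-coated 96-well plates, single-lot HepaRG cells were exposed for 48 h, in duplicate, to eight-point half-log series of test chemicals beginning at 100 µM. The exposure medium was serum-free induction medium with 0.5% DMSO, and total lysis wells got 0.1% Triton X. Resorufin fluorescence from the CytoTox-ONE reaction, read on a Tecan Safire, reported LDH in 50 µL of spent medium. Percent cytotoxicity came from normalization to on-plate vehicle and total lysis controls, averaged over the duplicates.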

Structure (SMILES)	LDH release cytotoxicity (0.03162 µM)	LDH release cytotoxicity (0.1 µM)	LDH release cytotoxicity (0.3162278 µM)	LDH release cytotoxicity (1 µM)	LDH release cytotoxicity (3.16228 µM)	LDH release cytotoxicity (10 µM)	LDH release cytotoxicity (31.6228 µM)	LDH release cytotoxicity (100 µM)	further results
CSC(=O)c1c(C(F)F)nc(C(F)(F)F)c(C(=O)SC)c1CC(C)C [Dithiopyr]	–	–	–	–	–	–	–	–	LDH release cytotoxicity (0.0140721 µM): -1.51 ± 2.5%; LDH release cytotoxicity (0.0445 µM): -2.25 ± 0.63%; LDH release cytotoxicity (0.1407214 µM): -2.63 ± 0.43%; LDH release cytotoxicity (0.445 µM): -3.81 ± 0.56%; LDH release cytotoxicity (1.4072136 µM): -3.84 ± 0.3%; LDH release cytotoxicity (4.45 µM): -5.82 ± 2.5%; LDH release cytotoxicity (14.072136 µM): -1.76 ± 2.3%; LDH release cytotoxicity (44.5 µM): -1.31 ± 1.6%
CN(C)C(=O)Nc1ccc(Cl)c(Cl)c1 [Diuron]	–	–	–	–	–	–	–	–	LDH release cytotoxicity (0.0314647 µM): -0.32 ± 1.2%; LDH release cytotoxicity (0.0995 µM): -1.23 ± 1.5%; LDH release cytotoxicity (0.3146466 µM): -1.57 ± 0.64%; LDH release cytotoxicity (0.995 µM): -0.727 ± 0.72%; LDH release cytotoxicity (3.14647 µM): -1.47 ± 0.9%; LDH release cytotoxicity (9.95 µM): -1.77 ± 0.071%; LDH release cytotoxicity (31.4647 µM): -0.974 ± 0.13%; LDH release cytotoxicity (99.5 µM): 19 ± 4.1%
CCCCC(CC)COC(=O)CC(C(=O)OCC(CC)CCCC)S(=O)(=O)O (configuration not stated) [Docusate sodium]	-1.66 ± 0.36%	-0.373 ± 0.42%	-0.361 ± 0.69%	-0.887 ± 0.12%	-0.195 ± 0.3%	-1.39 ± 0.72%	1.52 ± 0.59%	75.5 ± 1.1%	–
CCCCCCCCCCCCc1cccc(S(=O)(=O)O)c1 [Dodecylbenzene sulfonate triethanolamine(1:1)]	–	–	–	–	–	–	–	–	LDH release cytotoxicity (0.02846 µM): -1.49 ± 0.8%; LDH release cytotoxicity (0.09 µM): -0.848 ± 1.3%; LDH release cytotoxicity (0.284605 µM): -1.53 ± 0.58%; LDH release cytotoxicity (0.9 µM): -1.22 ± 0.78%; LDH release cytotoxicity (2.84605 µM): -0.852 ± 0.19%; LDH release cytotoxicity (9 µM): -1.11 ± 0.016%; LDH release cytotoxicity (28.4605 µM): -0.984 ± 0.56%; LDH release cytotoxicity (90 µM): 5.69 ± 0.45%
CCCCCCCCCCCCc1ccccc1 [Dodecylbenzene]	-2.1 ± 0.14%	-1.71 ± 0.15%	-1.86 ± 0.75%	-2.59 ± 0.8%	-2.08 ± 0.19%	-0.672 ± 0.39%	-1.17 ± 0.31%	1.25 ± 1.2%	–
CCCCCCCCCCCCc1ccc(S(=O)(=O)O)cc1 [Dodecylbenzenesulfonic acid]	–	-1.4 ± 1.3%	–	-3.27 ± 1.6%	-2.52 ± 0.99%	-2.56 ± 0.4%	-1.64 ± 0.34%	65.65 ± 0.34%	LDH release cytotoxicity (0.031623 µM): -1.05 ± 0.58%; LDH release cytotoxicity (0.316228 µM): -2.17 ± 0.79%
CCCCCCCCCCCC[N+](C)(C)C [Dodecyltrimethylammonium chloride]	-1.4 ± 0.15%	-0.753 ± 0.6%	-1.39 ± 0.13%	-1.32 ± 0.19%	-1.23 ± 0.47%	-0.28 ± 0.2%	0.602 ± 0.64%	78 ± 0.7%	–
CCOP(=S)(Oc1ccc([N+](=O)[O-])cc1)c1ccccc1 (configuration not stated) [EPN]	-0.935 ± 0.29%	-1.31 ± 0.65%	-1.61 ± 1%	-1.96 ± 0.085%	-1.14 ± 0.37%	-0.361 ± 0.0065%	0.629 ± 0.14%	5.51 ± 0.88%	–
CCCN(CCC)C(=O)SCC [EPTC]	0.307 ± 0.45%	-0.433 ± 0.099%	-0.271 ± 0.12%	-0.35 ± 0.45%	-0.208 ± 0.25%	0.499 ± 0.14%	0.312 ± 0.64%	0.622 ± 0.63%	–
CN1CCN(c2ccccc2C=C2SCCN(c3ccc(Cl)c(Cl)c3)C2=O)CC1 [Elzasonan]	0.236 ± 2.3%	0.483 ± 1.1%	0.649 ± 0.75%	-0.238 ± 0.039%	-0.446 ± 0.23%	0.355 ± 0.19%	9.77 ± 0.73%	88.8 ± 3.5%	–
CC[C@H](C)C1O[C@]2(C=C[C@@H]1C)C[C@@H]1C[C@@H](C/C=C(\C)[C@@H](O[C@H]3C[C@H](OC)[C@@H](O[C@H]4C[C@H](OC)[C@H](NC)[C@H](C)O4)[C@H](C)O3)[C@@H](C)/C=C/C=C3\CO[C@@H]4[C@H](O)C(C)=C[C@@H](C(=O)O1)[C@]34O)O2 (some centres not stated) [Emamectin benzoate]	–	-1.09 ± 0.55%	–	-3.84 ± 0.41%	-2.51 ± 1.1%	5.16 ± 1.4%	83.4 ± 1.7%	87 ± 4.4%	LDH release cytotoxicity (0.031623 µM): -1.83 ± 1%; LDH release cytotoxicity (0.316228 µM): -2.57 ± 0.26%
O=S1OCC2C(CO1)C1(Cl)C(Cl)=C(Cl)C2(Cl)C1(Cl)Cl (configuration not stated) [Endosulfan]	0.0956 ± 0.07%	-0.361 ± 0.27%	-0.482 ± 0.4%	-0.273 ± 0.024%	-0.151 ± 0.84%	0.616 ± 0.33%	-0.612 ± 0.076%	14.5 ± 0.024%	–
O=C(O)C1C2CCC(O2)C1C(=O)O (configuration not stated) [Endothal]	-1.48 ± 0.36%	-1.31 ± 0.46%	-0.8 ± 1.6%	-0.517 ± 0.22%	-1.16 ± 0.45%	-1 ± 0.32%	1.01 ± 0.73%	21.8 ± 0.24%	–
ClC1=C(Cl)C2(Cl)C3C4CC(C5OC45)C3C1(Cl)C2(Cl)Cl (configuration not stated) [Endrin]	-0.958 ± 0.053%	-0.149 ± 0.18%	-0.591 ± 0.61%	-0.635 ± 0.031%	-0.591 ± 0.57%	-0.724 ± 0.2%	0.152 ± 0.33%	6.26 ± 0.25%	–
CCC1OC(=O)C(C)C(OC2CC(C)(OC)C(O)C(C)O2)C(C)C(OC2OC(C)CC(N(C)C)C2O)C(C)(O)CC(C)C(=O)C(C)C(O)C1(C)O (configuration not stated) [Erythromycin]	–	–	–	–	–	–	–	–	LDH release cytotoxicity (0.02356 µM): -1.71 ± 1.6%; LDH release cytotoxicity (0.0745 µM): -2.96 ± 1%; LDH release cytotoxicity (0.23559 µM): -1.94 ± 1%; LDH release cytotoxicity (0.745 µM): -3.63 ± 0.23%; LDH release cytotoxicity (2.3559 µM): -3.02 ± 1.1%; LDH release cytotoxicity (7.45 µM): -2.85 ± 0.59%; LDH release cytotoxicity (23.559 µM): -1.9 ± 0.73%; LDH release cytotoxicity (74.5 µM): -0.102 ± 1.1%
CC(C)C(C(=O)OC(C#N)c1cccc(Oc2ccccc2)c1)c1ccc(Cl)cc1 (configuration not stated) [Esfenvalerate]	-0.0612 ± 0.44%	-1.61 ± 0.76%	-0.46 ± 0.66%	-0.419 ± 0.79%	-1.05 ± 0.74%	0.166 ± 0.61%	-0.322 ± 0.82%	-0.488 ± 0.23%	–
CC12CCC3c4ccc(O)cc4CCC3C1CCC2=O (configuration not stated) [Estrone]	-1.21 ± 0.2%	-1.61 ± 0.43%	-1.15 ± 0.68%	-2.36 ± 0.6%	-2.37 ± 0.056%	-2.52 ± 0.45%	-1.9 ± 0.29%	0.127 ± 1.1%	–
NCCO [Ethanolamine]	-2.14 ± 1.3%	-2 ± 1.6%	-1.29 ± 0.49%	-1.55 ± 0.046%	-0.642 ± 0.088%	-0.777 ± 0.073%	-0.101 ± 0.76%	0.0783 ± 0.76%	–
O=P(O)(O)CCCl [Ethephon]	-2.07 ± 0.56%	-1.57 ± 0.61%	-2.29 ± 0.67%	-1.94 ± 0.34%	-2.12 ± 0.63%	-1.39 ± 0.53%	-0.276 ± 0.008%	0.34 ± 0.033%	–
